Results taken from patent US10945972B2, “Particulate materials” (Nektar Therapeutics, priority 2002, dated 2021).
Counter-ions that a name gives are not always drawn.

How the values were obtained:
Type in all cases: physicochemical
[1] = Inverse gas chromatography surface energy (Example 1); details: 303K; for ΔGA (kJ/mol) Chloroform: probe chloroform; for ΔGA (kJ/mol) Toluene: probe toluene; for ΔGA (kJ/mol) Acetone: probe acetone; for ΔGA (kJ/mol) Dioxane: probe dioxane; for ΔGA (kJ/mol) Ethyl acetate: probe ethyl acetate
From the text: For TBS and FHBr powders, IGC was done using a Hewlett Packard Series 6890 instrument which was specifically modified for IGC measurements by Surface Measurement Systems Ltd (Manchester, UK). The IGC method is described in detail by Tong et al. 2001. (Tong H. H. Y., B. Y. Shekunov, P. York, A. H. L. Chow, 2001. Pharm. Res. 18, 852.) Triplicate measurements in separate packed columns were made. […] The γS^D and ΔGA values were obtained at 303K.

[2] = Particle size by AeroSizer time-of-flight (Example 1); details: aerodynamic-equivalent volume mean diameter
Method: (§1) PSD measurements were performed using firstly, AEROSIZER® time-of-flight instrument equipped with AERO-[…]® (TSI Inc., Minneapolis. USA) and secondly, laser diffraction sensor Helos with dry-powder air-dispersion system Rodos (Sympatec GmbH. Germany). The volume mean particle diameter, VMD, was obtained for both instruments using software options. In the general case of non-spherical particles, these instruments cannot provide the exact value of VMD, however, the time-of-flight technique gives an aerodynamic-equivalent particle diameter, whereas the laser diffraction method provides the geometric projection-equivalent diameter. These diameters afford the complementary information on PSD and therefore can be used for comparative size analysis.

[3] = Particle size by Helos/Rodos laser diffraction (Example 1); details: geometric projection-equivalent volume mean diameter
Method: as §1

[4] = Differential scanning calorimetry (Example 8); details: DSC, 10° C. min^−1
Method: Prior to sample analysis, a baseline was obtained which was used as a background. […] Temperature and enthalpy were calibrated with the standard materials indium (melting point=156.6° C.) and zinc (melting point=419.5° C.). Samples (1-10) were accurately weighed into pierced, crimped aluminium pans and heated at 10° C. min^−1 over a heating range of 25-290° C. under a nitrogen purge. A chiller unit was used in conjunction with the calorimeter to attain the lower temperatures.

[5] = Isothermal microcalorimetry, TAM with RH ramp (Example 8); details: 25° C., RH ramp 0 to 90% at 3% RH/hr
Method: A Thermal Activity Monitor (TAM, model 2277; Thermometric A B, Jrflla, Sweden) was used to measure the calorimetric heat flow (μW) vs. % RH profile of each sample. A RH-perfusion cell (Model 2255-120) accessory for the TAM was used to control RH within the sample vessel. The carrier gas, dry N2, was flowed at a constant rate (1.48 cm^3/min). All experiments were performed at 25° C. About 100 to 105 mg accurately weighed of each powder were placed in a stainless steel ampoule, attached to the RH perfusion cell, and then dried under 0% RH until a stable heat flow signal was reached (e.g., a signal within the range of −1 to +1 μW). The RH was then increased in a linear ramp from 0 to 90% over the following 30 hours (i.e., 3% RH/hr). The heat flow arising from interactions of water vapor with the solid sample was measured as a function of time. Since RH changed with time in a linear fashion, the heat flow was also known as a function of RH.
The TAM measures the total heat flow in power, P, produced from either a physical or chemical reaction. In this study, the calorimetric power is proportional to the rate of moisture sorption or desorption, crystallization, and/or other processes. Exothermic events are measured as a deflection in the positive y-axis direction. Although crystallization is an exothermic process, it can be observed as a net endothermic process. During crystallization, there is an exotherm due to crystallization and a simultaneous endotherm due to desorption of previously sorbed moisture. The TAM profile gives the resultant of these processes.

[6] = AEROSIZER time-of-flight of TBS (Example 8)
Method: The TBS samples were also analysed using an AEROSIZER™ (Amherst Process Instruments, Amherst, Mass., USA), provided with pulse jet disperser, the AERODISPERSER™, to introduce the powders to the instrument. The measurement range of the AEROSIZER™ is nominally from 0.2 to 200 μm of aerodynamic diameter with the standard 750 μm diameter tapered nozzle. The micronized and SEDS™ TBS samples were analyzed for 300 seconds in triplicate using normal deagglomeration conditions, feed rate (5000 particles per second) and medium shear force (0.5 psi).

[7] = Laser diffraction HELOS/RODOS of TBS (Example 8); details: for Sympatec D4, 3 (μm): 2 bar
Method: A small amount of TBS powder was analysed using a laser diffraction RODOS/VIBRI dispersing system (HELOS/RODOS, Sympatec GmbH, Clausthal-Zellerfeld, Germany). The instrument consisted of a laser sensor HELOS and a RODOS dry-powder air-dispersion system (Sympatec GmbH, Clausthal-Zellerfeld, Germany). Different measurement ranges of the laser sensor were provided by interchangeable objectives R1 (0.1-35 μm) and R2 (0.25-87.5 μm). The rate of powder dispersion was controlled by adjusting the pressure of the compressed air flow. A pressure of 2 bar was sufficient to achieve deagglomeration of primary particles without attrition.

[8] = Inverse gas chromatography of TBS (Example 8)
Method: An empty GC column was uniformly packed with the powder of interest (TBS). Pre-silanized commercially available straight glass columns of 30 cm length with a 3 mm internal diameter were used in this investigation. The silanation procedure was necessary to minimize active sites on the inner glass surfaces, which strongly interact with polar probes. Each column was packed at the detector end with a small amount of silanised glass wool, was clipped to a stand and powder was added through a glass funnel with the aid of a mechanical column packer (tapping) to improve powder flow and remove any air gaps. […] A. Hewlett Packard 6890 Series Gas Chromatograph (GC) (Hewlett Packard, Penna, USA) oven equipped with an autosampler was used to control the solvent temperature. The 6890 GC data acquisition system was used to record data from a thermal conductivity detector (TCD) and flame ionisation detector (FID) with the instrument modified for IGC by Surface Measurement Systems (SMS), Manchester, UK. The combination of detectors allowed sensitive analysis of both organic vapour elution and water (although RH was not raised above 0% for these experiments).
The whole system was fully automated by control software (SMS iGC Controller v1.3) and the data analyzed using SMS iGC Analysis macros. Prior to analysis, each column was equilibrated at 30° C. and 0% relative humidity (RH) for 5 hours by passing dry helium gas through the column. Helium gas was also used as the carrier gas. Hydrogen and compressed air flow rates were set at 40 and 450 ml min respectively for the FID. The chromatograph injection port was maintained at 80° C., TCD detector at 150° C. and the FID detector at 150° C. Column temperature was set at 30° C. throughout analysis. Data were obtained by flowing helium gas at 10 ml min^−1 through the sinalized glass column packed with a known weight of powdered material and injecting small amounts (concentration P/Po=0.05) of a range of probe vapors with different polarities. The retention times of the probes were measured using SMS iGC Controller v1.3 software, at infinite dilution or near zero surface coverage (equivalent to 10^−4-10^−7 μl of liquid) where retention is independent of the quantity of probe injected. For each sample, two columns were prepared and analysed by employing a method based on standard settings, which allows the precise control and measurement of experimental variables. This is essential in producing meaningful results. The data were used to calculate the dispersive and non-dispersive forces acting at TBS particle surfaces using the method developed by Schultz and co-workers (J. Schultz, L. Lavielle and C. Martin. The role of the interface in carbon fibre-epoxy composites, J. Adhesion, 23, 45-60 (1987)).

[9] = AEROFLOW powder avalanching (Example 8); details: listed as Micronized
Method: An AEROFLOW™ powder avalanching apparatus (Amherst Process Instruments, API, Amherst, USA) was employed to analyze the dynamic avalanching behaviour of micronized and SC processed TBS samples. The AEROFLOW™ apparatus consists of a transparent rotating drum with a port at the front. A white light source is positioned in front of the drum and a masked array of photocells is behind the drum. To measure avalanching, 50 ml of the drug powder was added to the drum, which is about 15% of its total volume to ensure good powder mixing during the operation. As the drum rotates, the powder bed is carried upwards until an unstable state is reached and an avalanche occurs.
The time between successive avalanches was recorded by the projection of the light beam through the drum onto the photocell array. The photocells generated a voltage dependent on the amount of light falling on the cells and the area of unmasked photocells shielded from the light source by the powder. The voltage output (transmitted light intensity) was recorded by a computer, which translates the output as powder movement using a technique disclosed in B. H. Kaye. Characterizing the flowability of a powder using the concepts of fractal geometry and chaos theory, Part. Part. Charact. 14: 53-66 (1997). Each TBS sample was tested in duplicate and mean avalanche time and irregularity (scatter) of avalanches were recorded.

[10] = AFM adhesion force of particles (Example 10); details: for adhesion force per unit area: following correction for surface area; for initial adhesion force for individual particles: in 2H 3H perfluoropentane
Method: The example assessed the force of adhesion of particles of salbutamol sulfate produced using a SEDS™ processes compared to the same compound in micronized form. Conventional AFM analysis was used. Particles of the samples were mounted onto AFM probes and the adhesion force per unit area to a freshly cleaved highly oriented pyrolytic graphite substrate (HOP G, Agar Scientific, Essex, UK) in a liquid (2H 3H perfluoropentane) environment was determined. The contact area involved in the interaction was assessed and related to the force measurements.

[11] = listed as micronized terbutaline sulphate

What does the source list for `CC(Cc1ccc(O)cc1)NCC(O)c1cc(O)cc(O)c1` (stereo not drawn) [FHBr Micronised, fenoterol hydrobromide, reference compound]?
γs^D (mJ/m^2) ([1]; hydrobromide): 48.53 mJ/m^2; ΔGA (kJ/mol) Chloroform ([1]; hydrobromide): 0.69 kJ/mol; ΔGA (kJ/mol) Toluene ([1]; hydrobromide): 4.77 kJ/mol; VMD (μm) (Time of flight) [2]: 1.7 μm; VMD (μm) (laser diffraction) ([3]; hydrobromide): 2.34 μm

With `CC(Cc1ccc(O)cc1)NCC(O)c1cc(O)cc(O)c1` (stereo not drawn) [FHBr SEDS, fenoterol hydrobromide] as the molecule, how does the “γs^D (mJ/m^2)” value ([1]; hydrobromide) read?
Its value is 49.87 mJ/m^2.

What about the “ΔGA (kJ/mol) Acetone” value [1] of the same molecule?
The value was 13.15 kJ/mol.

And the “ΔGA (kJ/mol) Chloroform” value ([1]; hydrobromide)?
The value was 0.63 kJ/mol.

What about the “ΔGA (kJ/mol) Dioxane” value [1] of the same molecule?
The value was 15.32 kJ/mol.

And the “ΔGA (kJ/mol) Ethyl acetate” value [1]?
The value was 17.48 kJ/mol.

What about the “ΔGA (kJ/mol) Toluene” value ([1]; hydrobromide) of the same molecule?
Its value is 3.86 kJ/mol.

What about the “VMD (μm) (Time of flight)” value [2] of the same molecule?
Its value is 1.7 μm.

And the “VMD (μm) (laser diffraction)” value ([3]; hydrobromide)?
The value was 3.55 μm.

For `CC(C)(C)NCC(O)c1cc(O)cc(O)c1` (stereo not drawn) [TBS 1, terbutaline sulfate], which “Enthalpy of Fusion” value [4] is on record?
Its value is 127.12 J/g.

And the “Enthalpy of Fusion” value ([4]; listed as TBS1)?
The value was 127.12 J/g.

And the “RH of thermal event in TAM profile” value [5]?
The value was “No exothermic or endothermic peaks were observed”.

What about the “Aerosizer D4, 3 (μm)” value [6] of the same molecule?
The value was 3.31 μm.

What about the “Sympatec D4, 3 (μm)” value [7] of the same molecule?
Its value is 3.22 μm.

And the KA [8]?
The KA was 0.761.

And the “γs^D mJm^−2” value ([8]; 30° C., 0% RH)?
Its value is 57.37 mJm^−2.

What about the “−ΔGA^SP (kJ/mol) Acetone” value ([8]; probe acetone) of the same molecule?
The value was 13.41 kJ/mol.

What about the “−ΔGA^SP (kJ/mol) Ethyl acetate” value ([8]; probe ethyl acetate) of the same molecule?
Its value is 16.65 kJ/mol.

What about the “−ΔGA^SP (kJ/mol) Toluene” value ([8]; probe toluene) of the same molecule?
The value was 3.66 kJ/mol.

What does the source list for `CC(C)(C)NCC(O)c1cc(O)cc(O)c1` (stereo not drawn) [TBS 3, terbutaline sulfate]?
Enthalpy of Fusion [4]: 31.35 J/g; Aerosizer D4, 3 (μm) [6]: 6.69 μm; Sympatec D4, 3 (μm) [7]: 1.99 μm

What does the source list for `CC(C)(C)NCC(O)c1cc(O)cc(O)c1` (stereo not drawn) [TBS 4, terbutaline sulfate]?
Enthalpy of Fusion [4]: 40.98 J/g; Aerosizer D4, 3 (μm) [6]: 15.53 μm; Sympatec D4, 3 (μm) [7]: 4.75 μm

What does the source list for `CC(C)(C)NCC(O)c1cc(O)cc(O)c1` (stereo not drawn) [TBS 5, terbutaline sulfate]?
Enthalpy of Fusion [4]: 57.69 J/g; Aerosizer D4, 3 (μm) [6]: 11.44 μm; Sympatec D4, 3 (μm) [7]: 4.84 μm

With `CC(C)(C)NCC(O)c1cc(O)cc(O)c1` (stereo not drawn) [TSB Micronised, terbutaline sulphate, reference compound] as the molecule, how does the “Irregularity of flow” value ([9]; 100 sec/rev) read?
Its value is 1.28 s.

What about the “Mean time to avalanche” value ([9]; 100 sec/rev) of the same molecule?
The value was 3.62 s.

What about the “Irregularity of flow” value ([9]; 145 sec/rev) of the same molecule?
Its value is 2.39 s.

What about the “Mean time to avalanche” value ([9]; 145 sec/rev) of the same molecule?
Its value is 5.72 s.

What about the “RH of thermal event in TAM profile” value ([5]; listed as micronized TBS) of the same molecule?
The value was “about 79 % RH”.

What about the “γs^D (mJ/m^2)” value [1] of the same molecule?
Its value is 58.61 mJ/m^2.

What about the “ΔGA (kJ/mol) Acetone” value [1] of the same molecule?
Its value is 12.57 kJ/mol.

What about the “ΔGA (kJ/mol) Chloroform” value [1] of the same molecule?
Its value is 1.79 kJ/mol.

And the “ΔGA (kJ/mol) Dioxane” value [1]?
The value was 15.96 kJ/mol.

What about the “ΔGA (kJ/mol) Ethyl acetate” value [1] of the same molecule?
The value was 16.01 kJ/mol.

What about the “ΔGA (kJ/mol) Toluene” value [1] of the same molecule?
The value was 3.42 kJ/mol.

What about the “VMD (μm) (Time of flight)” value [2] of the same molecule?
Its value is 2.7 μm.

What about the “VMD (μm) (laser diffraction)” value [3] of the same molecule?
Its value is 3.04 μm.

What about the “Sympatec D4, 3 (μm)” value [7, 11] of the same molecule?
The value was 3.0 μm.

What about the “particle size, 90% less than” value [7, 11] of the same molecule?
The value was “less than 5 μm”.

With “salbutamol sulfate [SEDS™ produced material]” as the molecule, how does the “adhesion force per unit area” value [10] read?
Its value is 13.52 nN/μm^2.

And the “initial adhesion force for individual particles” value [10]?
Its value is 4.21 nN.

For “salbutamol sulfate [micronized material, reference compound]”, which “adhesion force per unit area” value [10] is on record?
The value was 100.91 nN/μm^2.

What about the “initial adhesion force for individual particles” value [10] of the same molecule?
Its value is 15.77 nN.
